Drawing on US12544359B2, “1-aminosulfonyl-2-carboxypyrrole derivatives as metallo-beta-lactamase inhibitors” (INFEX Therapeutics Limited, priority 2019, dated 2026), this text covers IC50 and CC50 for 26 compounds.

In one data set the target is NDM-1 (Klebsiella pneumoniae, UniProt C7C422). Nature of the data set: metallo-β-lactamase inhibition assay (nitrocefin). Type of data set: biochemical. To be noted: 1.5 nM NDM-1, 100 μM nitrocefin, 37° C., pH 7.5. As for the experimental part:
Compounds of the invention were tested in a metallo-β-lactamase inhibition assay to investigate mechanism of action of the compounds. Results are reported as the concentration of test article required to inhibit enzyme activity by 50% (IC50).
Inhibition of metallo-β-lactamase enzyme function was performed at 37° C. in buffer at pH 7.5 (50 mM HEPES, 150 mM NaCl, 0.1 mM ZnSO4, 20 μg/mL PEG4000), containing 1.5 nM NDM-1, 100 μM nitrocefin, and a range of concentrations of compound. Absorbance at 490 nm was measured using a BMG LABTECH FLUOstar Omega microplate reader every minute for 30 minutes. IC50s were determined from the average increase in OD per minute versus the Log 10 concentration of compound using GraphPad Prism.

Data set [1] in a line: Cytotoxicity Assay (CellTiter-Glo). Format: cell-based. As to conditions: human, Hep G2 cells (ATCC HB-8065); 24 h exposure; read-out: HepG2 CC50. Here is the method:
Cytotoxicity was evaluated in human Hep G2 cells (ATCC HB-8065) seeded at a density of 2×10^5 cells per well and incubated for 24 h at 37° C., 5% CO2. Cells were exposed to a doubling dilution series of test article. After 24 h exposure, the viability of the cells was determined using CellTiter-Glo® (Promega, WI, USA) according to the manufacturer's instructions. Results are reported as the concentration of test article required to reduce cell viability by 50% (CC50).

Structures can show the parent of a compound that is named as a salt. A value given as a limit tells only on which side of the number the result lay.

Chain of NDM-1 (C7C422 whole entry, looked up, species assumed): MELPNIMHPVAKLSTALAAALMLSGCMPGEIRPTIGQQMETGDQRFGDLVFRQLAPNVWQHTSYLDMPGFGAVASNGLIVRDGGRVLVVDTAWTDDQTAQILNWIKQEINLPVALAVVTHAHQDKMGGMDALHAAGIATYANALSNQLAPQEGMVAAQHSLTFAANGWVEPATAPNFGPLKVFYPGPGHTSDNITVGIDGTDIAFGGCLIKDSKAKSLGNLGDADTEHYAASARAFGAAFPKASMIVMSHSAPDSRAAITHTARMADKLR

With `CNC(=O)c1cccc(-c2ccn(S(N)(=O)=O)c2C(=O)O)c1` [Example 1, 3-[3-(Methylcarbamoyl)phenyl]-1-sulfamoyl-pyrrole-2-carboxylic acid], inhibition against NDM-1 was half-maximal at 223 nM (IC50). Moreover, the CC50 at 24 h in data set [1] is over 256 µg/mL.
For `CN(C)C(=O)c1ccc(-c2ccn(S(N)(=O)=O)c2C(=O)O)cc1` [Example 2, 3-[4-(Dimethylcarbamoyl)phenyl]-1-sulfamoyl-pyrrole-2-carboxylic acid] the same measures were 111 nM and over 256 µg/mL.
Consider `NS(=O)(=O)n1ccc(-c2ccc(C(=O)NC3CC3)cc2)c1C(=O)O` [Example 3, 3-[4-(Cyclopropyl-carbamoyl)phenyl]-1-sulfamoyl-pyrrole-2-carboxylic acid], for which the CC50 at 24 h in data set [1] was over 256 µg/mL.
Consider `N#CCNC(=O)c1ccc(-c2ccn(S(N)(=O)=O)c2C(=O)O)cc1` [Example 6, 3-[4-(Cyanomethyl-carbamoyl)phenyl]-1-sulfamoyl-pyrrole-2-carboxylic acid], for which the concentration for half-maximal inhibition (IC50) against NDM-1 amounted to 843 nM. The CC50 at 24 h in data set [1] was over 256 µg/mL.
On NDM-1, `NS(=O)(=O)n1ccc(-c2ccc(C(=O)NCC(=O)O)cc2)c1C(=O)O` [Example 7, 3-[4-(Carboxymethyl-carbamoyl)phenyl]-1-sulfamoyl-pyrrole-2-carboxylic acid] came in with an IC50 of 650 nM. Further, the CC50 at 24 h in data set [1] is over 256 µg/mL.
The like results for `NC(=O)CNC(=O)c1ccc(-c2ccn(S(N)(=O)=O)c2C(=O)O)cc1` [Example 8, 3-[4-[(2-Amino-2-oxo-ethyl)carbamoyl]phenyl]-1-sulfamoyl-pyrrole-2-carboxylic acid] were, in that order, 405 nM and over 128 µg/mL.
`CN(C)CCNC(=O)c1ccc(-c2ccn(S(N)(=O)=O)c2C(=O)O)cc1` [Example 9, 3-[4-[2-(Dimethylamino)ethylcarbamoyl]phenyl]-1-sulfamoyl-pyrrole-2-carboxylic acid] registered an IC50 against NDM-1 of 373 nM. In addition, the CC50 at 24 h in data set [1] was over 256 µg/mL.
Turning to `CC(=O)NCCNC(=O)c1ccc(-c2ccn(S(N)(=O)=O)c2C(=O)O)cc1` [Example 10, 3-[4-(2-Acetamidoethyl-carbamoyl)phenyl]-1-sulfamoyl-pyrrole-2-carboxylic acid], at NDM-1, the IC50 turned out to be 374 nM. For the same compound, the CC50 at 24 h in data set [1] is over 256 µg/mL.
As for `NS(=O)(=O)n1ccc(-c2ccc(C(=O)NCCCO)cc2)c1C(=O)O` [Example 11, 3-[4-(3-Hydroxypropyl-carbamoyl)phenyl]-1-sulfamoyl-pyrrole-2-carboxylic acid], 527 nM corresponded to half-maximal inhibition against NDM-1 (IC50). Besides, the CC50 at 24 h in data set [1] is over 256 µg/mL.
The like results for `NS(=O)(=O)n1ccc(-c2ccc(C(=O)NC(CO)CO)cc2)c1C(=O)O` [Example 12, 3-[4-[[2-Hydroxy-1-(hydroxymethyl)ethyl]carbamoyl]phenyl]-1-sulfamoyl-pyrrole-2-carboxylic acid] were, in that order, 1060 nM and over 128 µg/mL.
The like results for `NS(=O)(=O)n1ccc(-c2ccc(C(=O)NC[C@@H](O)CO)cc2)c1C(=O)O` [Example 13, 3-[4-[[(2R)-2,3-Dihydroxypropyl]carbamoyl]phenyl]-1-sulfamoyl-pyrrole-2-carboxylic acid] were, in that order, 566 nM and over 256 µg/mL.
At NDM-1, `NS(=O)(=O)n1ccc(-c2ccc(C(=O)NCCN3CCOCC3)cc2)c1C(=O)O` [Example 15, 3-[4-(2-Morpholinoethyl-carbamoyl)phenyl]-1-sulfamoyl-pyrrole-2-carboxylic acid] registered an IC50 of 1790 nM. Moreover, the CC50 at 24 h in data set [1] is over 256 µg/mL.
The like results for `NS(=O)(=O)n1ccc(-c2ccc(C(=O)NCCN3CCCC3=O)cc2)c1C(=O)O` [Example 16, 3-[4-[2-(2-Oxopyrrolidin-1-yl)ethylcarbamoyl]phenyl]-1-sulfamoyl-pyrrole-2-carboxylic acid] were, in that order, 623 nM and over 256 µg/mL.
Take `NS(=O)(=O)n1ccc(-c2ccc(C(=O)NCCN3CCNC3=O)cc2)c1C(=O)O` [Example 17, 3-[4-[2-(2-Oxoimidazolidin-1-yl)ethylcarbamoyl]phenyl]-1-sulfamoyl-pyrrole-2-carboxylic acid, ammonium salt]: it took 394 nM to reach half-maximal inhibition against NDM-1 (IC50). In data set [1], the CC50 at 24 h was over 256 µg/mL.
For `NC1CN(C(=O)c2ccc(-c3ccn(S(N)(=O)=O)c3C(=O)O)cc2)C1` [Example 21, 3-[4-(3-Aminoazetidine-1-carbonyl)phenyl]-1-sulfamoyl-pyrrole-2-carboxylic acid], half-maximal inhibition against NDM-1 (IC50) required 78 nM. Further, the CC50 at 24 h in data set [1] was over 256 µg/mL.
For `NCCNC(=O)c1ccc(-c2ccn(S(N)(=O)=O)c2C(=O)O)cc1` [Example 26, 3-[4-(2-Aminoethyl-carbamoyl)phenyl]-1-sulfamoyl-pyrrole-2-carboxylic acid] the same measures were 420 nM and over 256 µg/mL.
The like results for `NS(=O)(=O)n1ccc(-c2ccc(C(=O)N3CCNCC3)cc2)c1C(=O)O` [Example 27, 3-[4-(Piperazine-1-carbonyl)phenyl]-1-sulfamoyl-pyrrole-2-carboxylic acid] were, in that order, 131 nM and over 256 µg/mL.
The like results for `NC1CN(C(=O)c2cccc(-c3ccn(S(N)(=O)=O)c3C(=O)O)c2)C1` [Example 31, 3-[3-(3-Aminoazetidine-1-carbonyl)phenyl]-1-sulfamoyl-pyrrole-2-carboxylic acid] were, in that order, 3330 nM and over 256 µg/mL.
The compound `CCNCCNC(=O)c1ccc(-c2ccn(S(N)(=O)=O)c2C(=O)O)cc1` [Example 32, 3-[4-[2-(Ethylamino)ethylcarbamoyl]phenyl]-1-sulfamoyl-pyrrole-2-carboxylic acid] showed an IC50 against NDM-1 of 1060 nM. In data set [1], the CC50 at 24 h was over 256 µg/mL.
The like results for `NS(=O)(=O)n1ccc(-c2ccc(C(=O)NC3CNC3)cc2)c1C(=O)O` [Example 35, 3-[4-(Azetidin-3-ylcarbamoyl)phenyl]-1-sulfamoyl-pyrrole-2-carboxylic acid] were, in that order, 200 nM and over 256 µg/mL.
In the case of `NS(=O)(=O)n1ccc(-c2ccc(C(=O)NC3CCNCC3)cc2)c1C(=O)O` [Example 36, 3-[4-(4-Piperidylcarbamoyl)phenyl]-1-sulfamoyl-pyrrole-2-carboxylic acid hydrochloride], the IC50 on NDM-1 is 410 nM. Moreover, in data set [1], the CC50 at 24 h was over 256 µg/mL.
As to `NS(=O)(=O)n1ccc(-c2ccc(C(=O)NCCCOS(=O)(=O)O)cc2)c1C(=O)O` [Example 54, 1-Sulfamoyl-3-[4-(3-sulfooxypropylcarbamoyl)phenyl]pyrrole-2-carboxylic acid], the CC50 at 24 h in data set [1] is over 256 µg/mL.
Take `NS(=O)(=O)n1ccc(CC2CCNCC2)c1C(=O)O` [Example 57, 3-(4-Piperidylmethyl)-1-sulfamoyl-pyrrole-2-carboxylic acid hydrochloride]: in data set [1], the CC50 at 24 h is over 256 µg/mL.
As to `CC(=O)N1CCCC(c2ccn(S(N)(=O)=O)c2C(=O)O)C1` (stereo not shown) [Example 58, 3-[1-Acetyl-3-piperidyl]-1-sulfamoyl-pyrrole-2-carboxylic acid], at NDM-1, 433 nM corresponded to half-maximal inhibition (IC50).
For `CC(=O)N1CCC(Cc2ccn(S(N)(=O)=O)c2C(=O)O)CC1` [Example 62, 3-[(1-Acetyl-4-piperidyl)methyl]-1-sulfamoyl-pyrrole-2-carboxylic acid], the CC50 at 24 h in data set [1] is over 256 µg/mL.
`N=C(N)NCC(=O)N1CCC(c2ccn(S(N)(=O)=O)c2C(=O)O)CC1` [Example 83, 3-[1-(2-Guanidinoacetyl)-4-piperidyl]-1-sulfamoyl-pyrrole-2-carboxylic acid]: the CC50 at 24 h in data set [1] was over 256 µg/mL.
